According to PubChem BioAssay AID602272 (Broad Institute, 2012):
Activity calls are given as the source filed them.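 How the source made its calls: active means every repeat run shows inhibition with half-maximal dose at most twice the top dose tested; inconclusive means repeat runs disagree on the call; inactive means every repeat run inactive.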

biological target: Glycogen synthase kinase-3 beta (Homo sapiens) (UniProt P49841); assay: GSK3beta kinase inhibition, dose response, selectivity assay for CDK5 tau phosphorylation inhibitor project, biochemical, ADP-Glo luminescence, GST-GSK3beta, dry powder (AID 602272); details: recombinant GST-GSK3beta, 60 min
Sequence (P49841 whole entry, looked up): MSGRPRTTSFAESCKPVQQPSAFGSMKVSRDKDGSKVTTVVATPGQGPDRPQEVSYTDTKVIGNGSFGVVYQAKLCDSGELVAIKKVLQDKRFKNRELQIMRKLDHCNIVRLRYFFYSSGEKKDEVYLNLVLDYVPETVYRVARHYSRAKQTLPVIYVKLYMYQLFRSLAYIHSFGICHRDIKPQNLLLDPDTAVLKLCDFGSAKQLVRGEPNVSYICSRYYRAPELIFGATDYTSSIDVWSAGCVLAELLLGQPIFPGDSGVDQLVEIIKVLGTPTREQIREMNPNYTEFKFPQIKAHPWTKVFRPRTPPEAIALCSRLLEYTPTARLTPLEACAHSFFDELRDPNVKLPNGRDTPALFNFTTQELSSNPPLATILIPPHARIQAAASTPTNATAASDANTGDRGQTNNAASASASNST

Structure (SMILES)	AC50
CC(C)(C)n1c(NC(=O)c2cccc(S(C)(=O)=O)c2)nc2ccccc21	18.9 µM

same assay, conditions: recombinant GST-GSK3beta, 60 min, at 30 µM (top of the series)

Structure (SMILES)	activity change, negative = inhibition
COc1cc(C(=O)N2CCN(c3ccccc3)CC2)cc(OC)c1OC	inactive
O=C(c1ccccc1)N1CCN(c2ccccn2)CC1	inactive
COc1cccnc1N1CCN(C(=O)c2ccc(Cl)cc2)CC1	inactive
CCCn1c(NC(=O)c2cccc(S(=O)(=O)N(CC)CC)c2)nc2ccccc21	inactive
COCCC(=O)N1CCN(c2ccccn2)CC1	inactive
Cc1cccc(N2CCN(C(=O)c3ccc(Cl)cc3)CC2)n1	inactive
COc1ccnc(N2CCN(C(=O)c3ccc(Cl)cc3)CC2)c1	inactive
O=C(c1ccc(Cl)cc1)N1CCN(c2ccccn2)CC1	inactive
c1ccc(N2CCNCC2)nc1	inactive
CCCn1c(NC(=O)c2ccc(OC)c(S(=O)(=O)N3CCCC3)c2)nc2ccccc21	inactive
CCCCC(=O)N1CCN(c2ccccn2)CC1	inactive
CCCn1c(NC(=O)c2cccc(S(=O)(=O)N(C)C)c2)nc2ccccc21	inactive
COc1ccc(C(=O)N2CCN(c3ccccn3)CC2)cc1	inactive
N#Cc1cccnc1N1CCN(C(=O)c2ccc(Cl)cc2)CC1	inactive
Cc1ccnc(N2CCN(C(=O)c3ccc(Cl)cc3)CC2)c1	inactive
O=C(C1CCCCC1)N1CCN(c2ccccn2)CC1	inactive
CCCn1c(NC(=O)c2cccc(S(=O)(=O)N3CCCCC3)c2)nc2ccccc21	inactive

Structure (SMILES)	activity change, negative = inhibition
O=C(c1ccccc1Cl)N1CCN(c2ccccn2)CC1	inactive
O=C(c1cccc(Cl)c1)N1CCN(c2ccccn2)CC1	inactive
O=C(c1ccc(Cl)cc1)N1CCN(c2ncccc2C(F)(F)F)CC1	inactive
CCOc1cc(C(=O)N2CCN(c3ccccn3)CC2)cc(OCC)c1OCC	inactive
COc1cccc(C(=O)N2CCN(c3ccccn3)CC2)c1	inactive
COc1cc(C(=O)N2CCN(c3ccccn3)CC2)cc(OC)c1OC	inactive
O=C(c1ccc(Cl)cc1)N1CCN(c2cccc(C(F)(F)F)n2)CC1	inactive
N#Cc1ccc(C(=O)N2CCN(c3ccccn3)CC2)cc1	inactive
N#Cc1ccc(N2CCN(C(=O)c3ccc(Cl)cc3)CC2)nc1	inactive
O=C(c1ccc(F)cc1)N1CCN(c2ccccn2)CC1	inactive
Cc1ccc(N2CCN(C(=O)c3ccc(Cl)cc3)CC2)nc1	inactive
O=C(c1ccc(Cl)cc1)N1CCN(c2ccc(C(F)(F)F)cn2)CC1	inactive
CCCn1c(NC(=O)c2ccc(Cl)c(S(=O)(=O)N3CCCC3)c2)nc2ccccc21	inactive
CCn1c(NC(=O)c2cccc(S(=O)(=O)NC)c2)nc2ccccc21	inactive
Cc1ccc(C(=O)N2CCN(c3ccccn3)CC2)cc1	inactive
CC(C)C(=O)N1CCN(c2ccccn2)CC1	inactive
